Results from patent US9670208B2, “Serine/threonine kinase inhibitors” (Array BioPharma Inc., priority 2013, dated 2017).

What was measured:
[1] = system: PMA-stimulated P90RSK(Ser380) phosphorylation in HepG2 cells; assay: Cellular P90RSK(Ser380) Phosphorylation Assay; format: cell-based; details: Homo sapiens, 1.5 hours compound incubation, PMA 100 ng/mL, normalized to GAPDH, single assay or mean of multiple assays, read-out: Biological Example 2 IC50
Experimental: Inhibition of PMA-stimulated P90RSK(Ser380) phosphorylation was determined by the following in vitro cellular mechanistic assay, which comprises incubating cells with a compound for 1.5 hours and quantifying fluorescent pP90RSK(Ser380) signal on fixed cells and normalizing to GAPDH signal.
HepG2 cells were obtained from ATCC (Manassas, Va.) and grown in DMEM supplemented with 10% fetal bovine serum. Cells were plated in 96-well plates at 35,000 cells/well and allowed to attach overnight at 37° C./5% CO2. Diluted compounds were then added at a final concentration of 0.5% DMSO. After 1.5 hours compound incubation, cells were stimulated with the addition of phorbol 12-myristate 13-acetate (“PMA”) at a final concentration of 100 ng/mL; the PMA stimulation was a 30-minute incubation at 37° C./5% CO2. After the 30-minute PMA stimulation, cells were washed with phosphate buffered saline (“PBS”) and fixed in 3.7% formaldehyde in PBS at room temperature for 15-20 minutes. This was followed by another wash in PBS and then permeabilization in 100% MeOH at room temperature for 10-15 minutes. Following the permeabilization incubation, cells were washed in PBS/0.05% Tween-20, followed by a block in Odyssey blocking buffer (LI-COR Biosciences) for at least 1 hour. Antibodies to phosphorylated P90RSK(Ser380) (Cell Signaling #9335, rabbit monoclonal) and GAPDH (Fitzgerald 10R-G109a, mouse monoclonal) were added to the cells and incubated overnight at 4° C. pP90RSK(Ser380) antibody was used at a 1:250 dilution; GAPDH was used at a 1:10,000 dilution. After washing with PBS/0.05% Tween-20, the cells were incubated with fluorescently-labeled secondary antibodies (Anti-rabbit-Alexa Flour680, Invitrogen Cat#A21109; Anti-mouse-IRDye800CW, Rockland Inc. Cat#610-131-121) for 1 hour. Both secondary antibodies were used at a 1:1000 dilution. Cells were then washed and analyzed for fluorescence at both wavelengths using the Odyssey Infrared Imaging System (LI-COR Biosciences). Phosphorylated P90RSK(Ser380) signal was normalized to GAPDH signal.

[2] = target: human ERK-2 (Mitogen Activated Kinase 1) (Homo sapiens (Human), UniProt P28482); assay: ERK-2 Enzymatic Assay; format: biochemical; details: ERK-2 enzyme, 25 μM ATP; single assay or mean of multiple assays; read-out: Biological Example 1 IC50
Chain of human ERK-2 (Mitogen Activated Kinase 1) (P28482 8-360): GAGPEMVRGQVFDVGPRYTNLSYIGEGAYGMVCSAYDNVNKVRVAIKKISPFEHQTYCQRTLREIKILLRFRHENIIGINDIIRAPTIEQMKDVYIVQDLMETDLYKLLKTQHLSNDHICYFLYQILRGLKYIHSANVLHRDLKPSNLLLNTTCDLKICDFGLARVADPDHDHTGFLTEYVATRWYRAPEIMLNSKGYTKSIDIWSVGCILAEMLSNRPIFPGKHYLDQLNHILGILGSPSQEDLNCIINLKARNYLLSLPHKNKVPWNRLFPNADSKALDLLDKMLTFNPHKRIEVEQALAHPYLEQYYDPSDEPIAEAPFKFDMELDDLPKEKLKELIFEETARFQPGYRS

Row | Compound | IC50 [2] | IC50 [1]
1 | COc1ccc(Cc2nnc3cc(-c4ccnc(Nc5ccnn5C)n4)ccn23)cc1 [Example 49, 4-(3-(4-methoxybenzyl)-[1,2,4]triazolo[4,3-a]pyridin-7-yl)-N-(1-methyl-1H-pyrazol-5-yl)pyrimidin-2-amine] | 0.8 nM | 6.6 nM
2 | Cn1nccc1Nc1nccc(-c2ccn3c(Cc4cccc(Cl)c4Cl)nnc3c2)n1 [Example 57, 4-(3-(2,3-dichlorobenzyl)-[1,2,4]triazolo[4,3-a]pyridin-7-yl)-N-(1-methyl-1H-pyrazol-5-yl)pyrimidin-2-amine] | 0.5 nM | 4.6 nM
3 | COC(Cc1nnc2cc(-c3ccnc(Nc4ccnn4C)n3)ccn12)C(F)(F)F (stereo not shown) [Example 108, N-(1-methyl-1H-pyrazol-5-yl)-4-(3-(3,3,3-trifluoro-2-methoxypropyl)-[1,2,4]triazolo[4,3-a]pyridin-7-yl)pyrimidin-2-amine] | 3.4 nM | 38.2 nM
4 | Cn1nccc1Nc1nccc(-c2ccn3c([C@H](O)c4cccc(Cl)c4)nnc3c2)n1 [Example 116, (R)-(3-chlorophenyl)(7-(2-((1-methyl-1H-pyrazol-5-yl)amino)pyrimidin-4-yl)-[1,2,4]triazolo[4,3-a]pyridin-3-yl)methanol] | 3.3 nM | 19.3 nM
5 | COc1ccc(Cc2nnc3cc(-c4nc(NC5CCOCC5)ncc4F)ccn23)cc1 [Example 123, 5-fluoro-4-(3-(4-methoxybenzyl)-[1,2,4]triazolo[4,3-a]pyridin-7-yl)-N-(tetrahydro-2H-pyran-4-yl)pyrimidin-2-amine] | 2.8 nM | 25.6 nM
6 | Cn1nccc1Nc1cc(-c2ccn3c([C@H](O)Cc4ccccc4)nnc3c2)ccn1 [Example 121, (R)-1-(7-(2-((1-methyl-1H-pyrazol-5-yl)amino)pyridin-4-yl)-[1,2,4]triazolo[4,3-a]pyridin-3-yl)-2-phenylethanol] | 0.9 nM | 34.7 nM
7 | Cn1nccc1Nc1nccc(-c2ccn3c(Cc4cccc(F)c4F)nnc3c2)n1 [Example 51, 4-(3-(2,3-difluorobenzyl)-[1,2,4]triazolo[4,3-a]pyridin-7-yl)-N-(1-methyl-1H-pyrazol-5-yl)pyrimidin-2-amine] | 2.6 nM | 8.9 nM
8 | Cn1nccc1Nc1nccc(-c2ccn3c(Cc4cc(C5CC5)ccn4)nnc3c2)n1 [Example 35, 4-(3-((4-cyclopropylpyridin-2-yl)methyl)-[1,2,4]triazolo[4,3-a]pyridin-7-yl)-N-(1-methyl-1H-pyrazol-5-yl)pyrimidin-2-amine] | 0.8 nM | 17 nM
9 | CCOCCc1nnc2cc(-c3ccnc(Nc4ccnn4C)n3)ccn12 [Example 111, 4-(3-(2-ethoxyethyl)-[1,2,4]triazolo[4,3-a]pyridin-7-yl)-N-(1-methyl-1H-pyrazol-5-yl)pyrimidin-2-amine] | 2.9 nM | 27.9 nM
10 | c1cc(-c2ccn3c(C4CCCNC4)nnc3c2)nc(NC2CCOCC2)n1 (stereo not shown) [Example 131, 4-(3-(piperidin-3-yl)-[1,2,4]triazolo[4,3-a]pyridin-7-yl)-N-(tetrahydro-2H-pyran-4-yl)pyrimidin-2-amine] | 224 nM | 2380 nM
11 | Cn1nccc1Nc1cc(-c2ccn3c(Cc4ccc(F)cc4F)nnc3c2)ccn1 [Example 84, 4-(3-(2,4-difluorobenzyl)-[1,2,4]triazolo[4,3-a]pyridin-7-yl)-N-(1-methyl-1H-pyrazol-5-yl)pyridin-2-amine] | 3.2 nM | 15.7 nM

More lines, main results first:

Row | IC50 [2] | Compound | IC50 [1]
12 | 24.9 nM | CO[C@@H](c1ccccc1)c1nnc2cc(-c3ccnc(NC4CCOCC4)n3)ccn12 [Example 195, (S)-4-(3-(methoxy(phenyl)methyl)-[1,2,4]triazolo[4,3-a]pyridin-7-yl)-N-(tetrahydro-2H-pyran-4-yl)pyrimidin-2-amine] | 39.7 nM
13 | 0.8 nM | c1ccc(Cc2nnc3cc(-c4ccnc(NC5CCOCC5)n4)ccn23)nc1 [Example 278, 4-(3-(pyridin-2-ylmethyl)-[1,2,4]triazolo[4,3-a]pyridin-7-yl)-N-(tetrahydro-2H-pyran-4-yl)pyrimidin-2-amine] | 67.6 nM
14 | 0.9 nM | COc1ccc(Cc2nnc3cc(-c4ccnc(NC5CCOCC5)n4)ccn23)cc1F [Example 403, 4-(3-(3-fluoro-4-methoxybenzyl)-[1,2,4]triazolo[4,3-a]pyridin-7-yl)-N-(tetrahydro-2H-pyran-4-yl)pyrimidin-2-amine] | 18.6 nM
15 | 5.4 nM | CN(C)C(c1ccc(F)cc1)c1nnc2cc(-c3ccnc(Nc4ccnn4C)n3)ccn12 (stereo not shown) [Example 377, 4-(3-((dimethylamino)(4-fluorophenyl)methyl)-[1,2,4]triazolo[4,3-a]pyridin-7-yl)-N-(1-methyl-1H-pyrazol-5-yl)pyrimidin-2-amine] | 82.9 nM
16 | 172 nM | Cn1nccc1Nc1nccc(-c2ccn3c(C(=O)N4CCCC4)nnc3c2)n1 [Example 512, (7-(2-((1-methyl-1H-pyrazol-5-yl)amino)pyrimidin-4-yl)-[1,2,4]triazolo[4,3-a]pyridin-3-yl)(pyrrolidin-1-yl)methanone] | > 5000 nM
17 | 171 nM | CN1C(=O)CC(c2ccccc2)C1c1nnc2cc(-c3ccnc(NC4CCOCC4)n3)ccn12 (stereo not shown) [Example 136, 1-methyl-4-phenyl-5-(7-(2-((tetrahydro-2H-pyran-4-yl)amino)pyrimidin-4-yl)-[1,2,4]triazolo[4,3-a]pyridin-3-yl)pyrrolidin-2-one] | –
18 | 0.6 nM | Fc1ccc(Cc2nnc3cc(-c4ccnc(NC5CCOCC5)n4)ccn23)cc1 [Example 402, 4-(3-(4-fluorobenzyl)-[1,2,4]triazolo[4,3-a]pyridin-7-yl)-N-(tetrahydro-2H-pyran-4-yl)pyrimidin-2-amine] | 27.4 nM
19 | 0.9 nM | Cn1nccc1Nc1nccc(-c2ccn3c(CC4CCC(F)(F)CC4)nnc3c2)n1 [Example 317, 4-(3-((4,4-difluorocyclohexyl)methyl)-[1,2,4]triazolo[4,3-a]pyridin-7-yl)-N-(1-methyl-1H-pyrazol-5-yl)pyrimidin-2-amine] | 35.8 nM
20 | 6 nM | Cn1nccc1Nc1nccc(-c2ccn3c(C4OCCc5ccccc54)nnc3c2)n1 (stereo not shown) [Example 192, 4-(3-(isochroman-1-yl)-[1,2,4]triazolo[4,3-a]pyridin-7-yl)-N-(1-methyl-1H-pyrazol-5-yl)pyrimidin-2-amine] | 37.5 nM
21 | 1.8 nM | Cn1nccc1Nc1nccc(-c2ccn3c(CS(=O)(=O)c4ccccc4)nnc3c2)n1 [Example 306, N-(1-methyl-1H-pyrazol-5-yl)-4-(3-((phenylsulfonyl)methyl)-[1,2,4]triazolo[4,3-a]pyridin-7-yl)pyrimidin-2-amine] | 63.7 nM
22 | 135 nM | Cc1cc(-c2nnc3cc(-c4ccnc(Nc5cnn(C)c5)n4)ccn23)nn1-c1ccc(F)cc1 [Example 419, 4-(3-(1-(4-fluorophenyl)-5-methyl-1H-pyrazol-3-yl)-[1,2,4]triazolo[4,3-a]pyridin-7-yl)-N-(1-methyl-1H-pyrazol-4-yl)pyrimidin-2-amine] | –
23 | 117 nM | c1cc(-c2ccn3c(C4CNCCO4)nnc3c2)nc(NC2CCOCC2)n1 (stereo not shown) [Example 387, 4-(3-(morpholin-2-yl)-[1,2,4]triazolo[4,3-a]pyridin-7-yl)-N-(tetrahydro-2H-pyran-4-yl)pyrimidin-2-amine] | –
